According to patent US11130780B2, “Inhibitors of growth factor activation enzymes” (Washington University, priority 2015, dated 2021):
Several values for one entry are separate records, joined by “and”; a condition that tells them apart may be missing. Identical values can stand only once.

Key:
Format in all cases: biochemical
HGFA [1] = target: T1, HGFA (Homo sapiens, UniProt Q04756); assay: Chromogenic kinetic enzyme inhibitor assay of HGFA; conditions: Table 4.1; chromogenic substrate Pefachrome FVIIa
T1 construct: His6 tag (N); seven amino acid spacer and seven amino acid TEV cleavage site (N); Honey Bee melittin signal peptide (N); made in house; host or cells: High 5 insect cells (baculovirus; virus raised in Sf9)
T1 sequence (Q04756 373-655): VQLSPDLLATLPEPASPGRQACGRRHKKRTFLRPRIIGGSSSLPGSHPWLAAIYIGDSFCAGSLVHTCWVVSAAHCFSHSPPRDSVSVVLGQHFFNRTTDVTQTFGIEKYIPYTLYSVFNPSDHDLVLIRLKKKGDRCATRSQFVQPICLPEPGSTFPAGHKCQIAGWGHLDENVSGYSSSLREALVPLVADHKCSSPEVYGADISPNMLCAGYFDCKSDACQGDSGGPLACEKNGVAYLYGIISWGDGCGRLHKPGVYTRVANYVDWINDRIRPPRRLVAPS
Excerpt: This PCR product was cloned into the SfoI-HindIII sites of a modified pFastBac HT baculovirus expression vector (Addgene, Cambridge, Mass.). This vector contains a six amino His tag followed by a seven amino spacer and a seven amino acid TEV cleavage site placed immediately downstream of the Honey Bee melittin signal peptide. Using a modified Bac to Bac Expression System (Life Technologies, Carlsbad, Calif.), recombinant HGFA bacmids were obtained by transforming DH10Bac Escherichia coli cells. To obtain HGFA containing baculovirus, purified bacmids were transfected into Sf9 insect cells. After 5 days in culture at 27° C., media was harvested from transfected Sf9 cells. This media was used to prepare baculovirus infected insect cells (BIICs). These BIIICs were used to infect High 5 insect cells. Four days post infection, media was harvested and recombinant protein prepared as follows. Media was chilled to 4° C. and spun at 4000×g for 20 minutes (all subsequent steps were performed at 4° C. unless noted). […] Concentrated media was then buffer exchanged in two steps, five volumes of 50 mM Na-phosphate, 500 mM NaCl, pH 6.2, followed by five volumes of 50 mM Na-phosphate, 500 mM NaCl, pH 7.5. […] After mixing this slurry for 12 hours, nickel agarose beads were allowed to settle by gravity and then loaded into a column. Beads were washed with buffer (25 mM Na-phosphate, 500 mM NaCl, 25 mM imidazole, pH 8) and the bound protein eluted using (25 mM Na-phosphate, 500 mM NaCl, 250 mM imidazole, pH 8). Using a Amicon Ultra-4 Centrifugal filters (#UFC801008, Merck Millipore, Ltd., Tullagreen, Ireland), peak protein fractions were concentrated and run over a Superdex-200 10/300 GL column (GE Healthcare Life Sciences, Piscataway, N.J.) in 10 mM Tris, 200 mM NaCl, 0.2 mM EDTA, pH 8. HGFA containing fractions were pooled, concentrated, made 50% glycerol, and stored at minus 20° C. Protein was quantitated using a modified Lowry protein assay (#500-0006, Bio-Rad Laboratories, Hercules, Calif.).
Using Gen 5 2.00 software program (Biotek, Winnoski, Vt.), a four parameter curve fit was used to determine the inhibitor IC50s from a plot of the mean reaction velocity versus the inhibitor concentration. The IC50 values represent the average of three separate experimental determinations.

HGFA [2] = target: T1, HGFA; assay: Fluorescent kinetic enzyme inhibitor assay of HGFA; conditions: for Ki: Table 4.2, Boc-QLR-AMC substrate, read-out: HGFA Ki
Outline: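 Recombinant His-tagged HGFA residues 373-655 from insect cells, with substrate at Km. Inhibitors in 11-point dilutions, 0-20 μM final, 2% DMSO, fluorescence (ex 380/em 460 nm) followed over time at room temperature. IC50 from four-parameter fit of mean velocity, average of three experiments.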

matriptase = target: T2, matriptase (Homo sapiens, UniProt Q9Y5Y6); assay: Fluorescent kinetic enzyme inhibitor assay of matriptase; conditions: for IC50: Table 4.1
T2 construct: Charles Craik, UCSF (obtained from another laboratory)
T2 sequence (Q9Y5Y6 615-855 limits assumed): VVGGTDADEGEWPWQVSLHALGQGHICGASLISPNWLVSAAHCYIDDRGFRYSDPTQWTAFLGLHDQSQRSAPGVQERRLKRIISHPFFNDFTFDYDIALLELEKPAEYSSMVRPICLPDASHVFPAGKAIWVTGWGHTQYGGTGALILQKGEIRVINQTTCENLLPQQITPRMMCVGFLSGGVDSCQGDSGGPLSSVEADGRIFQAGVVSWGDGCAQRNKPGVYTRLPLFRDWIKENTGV
Procedure: (§1) Inhibitors (11-pt serial dilutions, 0-20 μM final concentration in reaction) were serially diluted in DMSO (2% DMSO final concentration) and then mixed with either recombinant serine protease domain of HGFA [Z. Han, P. K. Harris, D. E. Jones, R. Chugani, T. Kim, M. Agarwal, W. Shen, S. A. Wildman, J. W. Janetka, Acs Med Chem Lett 2014, 5, 1219-1224], matriptase (Charles Craik, UCSF) or hepsin* (#4776-SE-010, R&D Systems, Minneapolis, Minn.) in black 384 well plates (Corning #3575. Corning, N.Y.). […] The final substrate concentrations for all assays were at the Km for the respective enzymes. Changes in fluorescence (excitation at 380 nm and emission at 460 nm) were measured at room temperature over time in a Biotek Synergy 2 plate reader (Winnoski, Vt.). Using GraphPad Prism version 6.04 software program, (GraphPad Software, San Diego, Calif., www.graphpad.com), a four parameter curve fit was used to determine the inhibitor IC50s from a plot of the mean reaction velocity versus the inhibitor concentration. The IC50 values represent the average of three separate experimental determinations.

hepsin = target: T3, hepsin (Homo sapiens, UniProt P05981); assay: Fluorescent kinetic enzyme inhibitor assay of hepsin; conditions: for IC50: Table 4.1; for Ki: Table 4.2, Boc-QAR-AMC substrate, read-out: Hepsin Ki
T3 construct: purchased R&D Systems 4776-SE-010
Procedure: as §1

T3 sequence (P05981 163-417 limits assumed): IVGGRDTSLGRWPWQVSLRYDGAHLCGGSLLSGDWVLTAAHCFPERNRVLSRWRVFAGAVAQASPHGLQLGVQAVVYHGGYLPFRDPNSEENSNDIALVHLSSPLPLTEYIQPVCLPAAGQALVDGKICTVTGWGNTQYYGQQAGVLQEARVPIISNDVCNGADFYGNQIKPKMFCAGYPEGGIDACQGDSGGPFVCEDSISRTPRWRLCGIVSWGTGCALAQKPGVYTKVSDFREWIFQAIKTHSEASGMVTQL
T3 sequence (P05981 45-162 partner limits assumed): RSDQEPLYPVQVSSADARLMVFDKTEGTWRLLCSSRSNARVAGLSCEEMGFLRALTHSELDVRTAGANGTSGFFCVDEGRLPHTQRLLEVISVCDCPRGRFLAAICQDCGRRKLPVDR

Structure (SMILES) | IC50 (HGFA [1]) | Ki (HGFA [2]) | other results
CC(=O)N[C@@H](CC(C)C)C(=O)N[C@@H](CC(C)C)C(=O)N[C@@H](CCCNC(=N)N)C(=O)c1nccs1 [Ac-LLR-kt] | 1480 nM | 253 nM | –
CC(=O)N[C@@H](CCCCN)C(=O)N[C@@H](CCC(N)=O)C(=O)N[C@@H](CC(C)C)C(=O)N[C@H](CCCNC(=N)N)C(=O)c1nccs1 [Compound 5-1, Ac-KQLdR-kt] | 5530 nM | – | –
CC(=O)N[C@@H](CCCCN)C(=O)N[C@@H](Cc1c[nH]cn1)C(=O)N[C@@H](CC(C)C)C(=O)N[C@@H](CCCNC(=N)N)C(=O)c1nccs1 [Compound 5a, Ac-KHLR(SEQ ID NO: 2)-kt] | 650 nM | 96 nM | –
CC(=O)N[C@@H](CCCCN)C(=O)N[C@@H](Cc1c[nH]cn1)C(=O)N[C@@H](CC(C)C)C(=O)N[C@H](CCCNC(=N)N)C(=O)c1nccs1 [Compound 5a-1, Ac-KHLdR-kt] | 10900 nM | – | –
CC(=O)N[C@@H](Cc1c[nH]c2ccccc12)C(=O)N[C@@H](CCC(N)=O)C(=O)N[C@@H](CC(C)C)C(=O)N[C@@H](CCCNC(=N)N)C(=O)c1nccs1 [Compound 5b, Ac-WQLR(SEQ ID NO: 3)-kt] | 471 nM | 65 nM | IC50 (matriptase): 49 nM; IC50 (hepsin): 1 nM; Ki (hepsin): 0.21 nM
CC(=O)N[C@@H](Cc1c[nH]c2ccccc12)C(=O)N[C@@H](CCC(N)=O)C(=O)N[C@@H](CC(C)C)C(=O)N[C@H](CCCNC(=N)N)C(=O)c1nccs1 [Compound 5b-1, Ac-WQLdR-kt] | 7120 nM | – | –
CC(=O)N[C@@H](CCCCN)C(=O)N[C@@H](CCC(N)=O)C(=O)N[C@@H](Cc1ccccc1)C(=O)N[C@H](CCCNC(=N)N)C(=O)c1nccs1 [Compound 5c-1, Ac-KQFdR-kt] | 7820 nM | – | –
CC(=O)N[C@@H](CCCCN)C(=O)N[C@@H](Cc1ccccc1)C(=O)N[C@@H](CC(C)C)C(=O)N[C@@H](CCCNC(=N)N)C(=O)c1nccs1 [Compound 5d, Ac-KFLR(SEQ ID NO: 5)-kt] | 330 nM | 80 nM | IC50 (matriptase): 35 nM; Ki (matriptase; Table 4.2, Boc-QAR-AMC substrate): 15 nM; IC50 (hepsin): 22 nM; Ki (hepsin): 2.1 nM; selectivity among HGFA, matriptase and hepsin (HGFA [2]): HGFA selectivity over both hepsin and matriptase
CC(=O)N[C@@H](CCCNC(=N)N)C(=O)N[C@@H](CCC(N)=O)C(=O)N[C@@H](CC(C)C)C(=O)N[C@H](CCCNC(=N)N)C(=O)c1nccs1 [Compound 5e-1, Ac-RQLdR-kt] | 3120 nM | – | –
CC(=O)N[C@@H](CO)C(=O)N[C@@H](CCC(N)=O)C(=O)N[C@@H](CC(C)C)C(=O)N[C@@H](CCCNC(=N)N)C(=O)c1nccs1 [Compound 5f, Ac-SQLR(SEQ ID NO: 7)-kt] | 180 nM | 182 nM | –
CC(=O)N[C@@H](CO)C(=O)N[C@@H](CCCCN)C(=O)N[C@@H](CC(C)C)C(=O)N[C@H](CCCNC(=N)N)C(=O)c1nccs1 [Compound 6-1, Ac-SKLdR-kt] | 6310 nM | – | –
CC(=O)N[C@@H](CO)C(=O)N[C@@H](Cc1c[nH]cn1)C(=O)N[C@@H](CC(C)C)C(=O)N[C@@H](CCCNC(=N)N)C(=O)c1nccs1 [Compound 6a, Ac-SHLR(SEQ ID NO: 11)-kt] | 1800 nM | 332 nM | IC50 (matriptase): 560 nM; IC50 (hepsin): 5 nM
CC(=O)N[C@@H](CC(C)C)C(=O)N[C@@H](CC(C)C)C(=O)N[C@H](C=O)CCCNC(=N)N [Leupeptin, reference compound] | 535 nM | 188 nM | IC50 (matriptase): 1150 nM; fold more potent for hepsin versus HGFA (hepsin): 3 fold; IC50 (hepsin): 256 nM; fold selective for HGFA over matriptase (HGFA [2]): 3 fold

The next lines start with results.

IC50 (HGFA [1]) | Ki (HGFA [2]) | Structure (SMILES) | other results
21200 nM | – | CC(=O)N[C@@H](CO)C(=O)N[C@@H](Cc1c[nH]cn1)C(=O)N[C@@H](CC(C)C)C(=O)N[C@H](CCCNC(=N)N)C(=O)c1nccs1 [Compound 6a-1, Ac-SHLdR-kt] | –
320 nM | 56 nM | CC(=O)N[C@@H](Cc1c[nH]c2ccccc12)C(=O)N[C@@H](CCCCN)C(=O)N[C@@H](CC(C)C)C(=O)N[C@@H](CCCNC(=N)N)C(=O)c1nccs1 [Compound 6b, Ac-WKLR(SEQ ID NO: 12)-kt] | IC50 (matriptase): 97 nM; IC50 (hepsin): 4 nM
6500 nM | – | CC(=O)N[C@@H](Cc1c[nH]c2ccccc12)C(=O)N[C@@H](CCCCN)C(=O)N[C@@H](CC(C)C)C(=O)N[C@H](CCCNC(=N)N)C(=O)c1nccs1 [Compound 6b-1, Ac-WKLdR-kt] | –
10800 nM | – | CC(=O)N[C@@H](CO)C(=O)N[C@@H](CCCCN)C(=O)N[C@@H](Cc1ccccc1)C(=O)N[C@H](CCCNC(=N)N)C(=O)c1nccs1 [Compound 6c-1, Ac-SKFdR-kt] | –
397 nM and 400 nM | 79 nM | CC(=O)N[C@@H](CC(N)=O)C(=O)N[C@@H](CCCCN)C(=O)N[C@@H](CC(C)C)C(=O)N[C@@H](CCCNC(=N)N)C(=O)c1nccs1 [Compound 6d, Ac-NKLR(SEQ ID NO: 14)-kt] | Ki (hepsin): 1.41 nM
11900 nM | – | CC(=O)N[C@@H](CO)C(=O)N[C@H](CCCNC(=N)N)C(=O)N[C@@H](CC(C)C)C(=O)N[C@H](CCCNC(=N)N)C(=O)c1nccs1 [Compound 6e-3, Ac-SdRLdR-kt] | –
567 nM | 103 nM | CC(=O)N[C@H](C(=O)N[C@@H](CCCCN)C(=O)N[C@@H](CC(C)C)C(=O)N[C@@H](CCCNC(=N)N)C(=O)c1nccs1)[C@@H](C)O [Compound 6f, Ac-TKLR(SEQ ID NO: 16)-kt] | –
370 nM | 17 nM | CC(=O)N[C@@H](CCCNC(=N)N)C(=O)N[C@@H](CCCCN)C(=O)N[C@@H](CC(C)C)C(=O)N[C@@H](CCCNC(=N)N)C(=O)c1nccs1 [Compound 6h, Ac-RKLR(SEQ ID NO: 18)-kt] | –
440 nM | – | CC(C)C[C@H](NC(=O)[C@H](CCC(N)=O)NC(=O)[C@@H](N)CCCCN)C(=O)N[C@@H](CCCNC(=N)N)C(=O)c1nccs1 [H-KQLR(SEQ ID NO: 1)-Kt] | –
11300 nM | – | CC(C)C[C@H](NC(=O)[C@H](CCC(N)=O)NC(=O)[C@@H](N)CCCCN)C(=O)N[C@H](CCCNC(=N)N)C(=O)c1nccs1 [H-KQLdR-kt] | –
